According to the supplement of paper PMC10307832:

How the values were obtained:
Assay in all cases: relative viability (nuclei count vs DMSO), 5 days (fraction); higher = more cells survive
kb NB 142-70 + AZD7762 = compound: C1CSC2=C(C(=O)N1)SC3=C2C=C(C=C3)O [kb NB 142-70] + NC(=O)Nc1cc(-c2cccc(F)c2)sc1C(=O)N[C@H]1CCCNC1 [AZD7762] (partner 0.2 µM)
Outline: (§1)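 Cells from lung cancer lines were seeded into 1536-well plates and, one day later, dosed by pin tool. Treatments were either a single drug or a fixed dose of an anchor drug with five library-drug doses (not always all listed) in √10 steps. After 5 days, nuclei were stained in a one-step fixation (final 0.05% Triton X-100, 1% formaldehyde, 1 ug/ml Hoechst) and counted on 4× images, and relative viability is the treated-to-vehicle nuclei ratio, as the median of duplicate plates.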

[1] = compound: C1CSC2=C(C(=O)N1)SC3=C2C=C(C=C3)O [kb NB 142-70] + CC(=O)Nc1cccc(-n2c(=O)n(C3CC3)c(=O)c3c(Nc4ccc(I)cc4F)n(C)c(=O)c(C)c32)c1 [Trametinib] (partner 0.02 µM)
Outline: as §1

[2] = compound: NCC(=O)Nc1ccc(-n2nc(C(F)(F)F)cc2-c2ccc3c(ccc4ccccc43)c2)cc1 + COc1cc2c(Oc3ccc(NC(=O)C4(C(=O)Nc5ccc(F)cc5)CC4)cc3F)ccnc2cc1OCCCN1CCOCC1 [Foretinib] (partner 0.25 µM)
Outline: as §1

| Cell Line | relative viability (kb NB 142-70 + AZD7762; first compound 0.1 µM) | relative viability (kb NB 142-70 + AZD7762; first compound 1 µM) | relative viability (kb NB 142-70 + AZD7762; first compound 3.162 µM) | relative viability ([1]; first compound 0.1 µM) | relative viability ([1]; first compound 1 µM) | relative viability ([1]; first compound 3.162 µM) | relative viability ([2]; first compound 0.02 µM) | relative viability ([2]; first compound 0.06325 µM) | relative viability ([2]; first compound 0.2 µM) | relative viability ([2]; first compound 0.6325 µM) | relative viability ([2]; first compound 2 µM) |
| --- | --- | --- | --- | --- | --- | --- | --- | --- | --- | --- | --- |
| NCI-H1993 | 0.73 | 0.611 | 1.03 | 0.479 | 0.741 | 0.485 | 0.861 | 0.819 | 0.814 | 0.796 | 0.835 |
| NCI-H2085 | 1.02 | 1.08 | 0.77 | 0.515 | 0.542 | 0.325 | 1.02 | 1.05 | 1.07 | 0.812 | 1.1 |
| NCI-H2087 | 1.38 | 1.45 | 1.18 | 0.18 | 0.263 | 0.194 | 0.981 | 0.992 | 1.23 | 1.11 | 1.15 |
| NCI-H2126 | 0.925 | 1.03 | 1.08 | 0.593 | 0.534 | 0.473 | 1.23 | 1.1 | 1.3 | 1.08 | 1.11 |
| NCI-H2170 | 0.899 | 1.04 | 0.724 | 0.878 | 0.958 | 0.888 | 0.995 | 0.975 | 1.04 | 0.985 | 1.02 |
| NCI-H2342 | 0.548 | 0.49 | 0.518 | 0.804 | 0.857 | 0.903 | 1.05 | 1.16 | 1.18 | 0.97 | 1.24 |
| NCI-H2347 | 0.873 | 0.924 | 0.737 | 0.259 | 0.267 | 0.233 | 1.36 | 0.838 | 1.02 | 1.03 | 0.833 |
| NCI-H2405 | 0.792 | 0.769 | 0.609 | 0.604 | 0.596 | 0.643 | 1.12 | 1.07 | 1.13 | 1.03 | 1.11 |
| NCI-H3122 | 1 | 1.03 | 1.02 | 0.229 | 0.225 | 0.274 | 0.973 | 0.906 | 1.01 | 0.962 | 0.888 |
| PC-3 [JPC-3] | 0.832 | 0.807 | 0.773 | 0.685 | 0.726 | 0.643 | 1.08 | 1.1 | 1.12 | 1.08 | 1.16 |
| PC-14 | 0.353 | 0.295 | 0.408 | 0.808 | 0.769 | 0.799 | 1.03 | 1.09 | 0.942 | 0.98 | 0.944 |
| RERF-LC-KJ | 1.02 | 0.985 | 1.04 | 0.914 | 0.928 | 0.805 | 0.963 | 1.06 | 0.927 | 0.466 | 0.851 |
| SW 900 | 0.663 | 0.758 | 0.879 | 0.73 | 1.05 | 0.682 | – | 1 | 0.863 | 0.855 | 1.04 |
